# Measurements as given in patent publication US8129381B2, “Caspase inhibitors and uses thereof” (Vertex Pharmaceuticals Incorporated, priority 2002, dated 2012).
# Columns and labels:
# [1] = target: T1, recombinant, purified human Caspase-3 (Homo sapiens, UniProt P42574); test: Enzyme assay, caspase inhibition (fluorogenic substrate cleavage); assay type: biochemical; conditions: second order rate constant of enzyme inactivation; substrate Acetyl-Asp-Glu-Val-Asp-amino-4-methylcoumarin
# T1 sequence (P42574 29-175 limits assumed): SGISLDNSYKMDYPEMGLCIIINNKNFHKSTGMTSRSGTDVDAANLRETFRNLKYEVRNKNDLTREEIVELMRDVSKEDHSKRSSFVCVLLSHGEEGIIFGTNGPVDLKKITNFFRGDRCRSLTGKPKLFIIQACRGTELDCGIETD
# T1 sequence (P42574 176-277 limits assumed): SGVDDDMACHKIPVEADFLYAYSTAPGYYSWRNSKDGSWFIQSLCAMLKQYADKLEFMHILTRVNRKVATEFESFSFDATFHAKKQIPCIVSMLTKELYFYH
# Source text: (§1) The assays for caspase inhibition are based on the cleavage of a fluorogenic substrate by recombinant, purified human Caspases −1, −3, −7 or −8. The assays are run in essentially the same way as those reported by Garcia-Calvo et al., J. Biol. Chem. 273, 32608-32613 (1998), using a substrate specific for each enzyme. The substrate for Caspase-1 is Acetyl-Tyr-Val-Ala-Asp-amino-4-methylcoumarin and the substrate for Caspases −3, −7 and −8 is Acetyl-Asp-Glu-Val-Asp-amino-4-methylcoumarin both as disclosed in Garcia-Calvo et al., J. Biol. Chem. 273, 32608-32613 (1998).
# (§2) The observed rate of enzyme inactivation at a particular inhibitor concentration, kobs, is computed by direct fits of the data to the equation derived by Thornberry et al., Biochemistry, 33, […] (1994) using a nonlinear least-squares analysis computer program (PRISM 2.0; GraphPad software). To obtain the second order rate constant, kinact, kobs values are plotted against their respective inhibitor concentrations and kinact values are subsequently calculated by computerized linear regression.
# (§3) Compounds with kinact(M^−1s^−1)>500000 are listed as “A”. Compounds with kinact(M^−1s^−1) between 100000 and 500000 are listed as “B”. Compounds with kinact(M^−1s^−1)<100000 are listed as “C”.
# [2] = target: recombinant, purified human Caspase-8 (Homo sapiens, UniProt Q14790); test: as above; assay type: biochemical; conditions: second order rate constant of enzyme inactivation; substrate Acetyl-Asp-Glu-Val-Asp-amino-4-methylcoumarin
# Source text: as §1, §2, §3
# [3] = target: T2, recombinant, purified human Caspase-1 (Homo sapiens, UniProt P29466); test: as above; assay type: biochemical; conditions: second order rate constant of enzyme inactivation; substrate Acetyl-Tyr-Val-Ala-Asp-amino-4-methylcoumarin
# T2 sequence (P29466 120-297 limits assumed): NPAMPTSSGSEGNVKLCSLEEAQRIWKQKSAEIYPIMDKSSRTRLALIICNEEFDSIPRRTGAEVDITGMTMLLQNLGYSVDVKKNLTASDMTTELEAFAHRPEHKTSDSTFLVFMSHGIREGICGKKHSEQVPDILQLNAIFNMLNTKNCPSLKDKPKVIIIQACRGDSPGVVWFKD
# T2 sequence (P29466 317-404 limits assumed): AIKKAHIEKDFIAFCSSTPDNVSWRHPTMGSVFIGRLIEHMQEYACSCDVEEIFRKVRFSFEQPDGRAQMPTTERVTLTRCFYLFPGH
# Source text: as §1, §2, §3
# [4] = system: rat cortical neurons; test: Hypoxia-induced apoptosis of rat cortical neurons; assay type: cell-based, Wistar rat; conditions: Cortical neurone, oxygen-depleted serum-free medium, Cell Death Detection ELISA (DNA fragmentation)
# Procedure: Cortical neurons are dissociated from Wistar rat embryos (E17) by a modification of the procedure of Rogers et al., Brain Res. Bulletin, 44:131 (1998). Briefly, cerebral cortices are isolated aseptically from 15-20 Wistar rat embryos. A cell suspension is prepared by mincing the cerebral cortices and digesting them with papain. Cells are washed with ovomucoid enzyme inhibitor and DNaseI and plated onto Poly-D lysine coated plates in high glucose DMEM containing 10% heat-inactivated fetal calf serum, L-glutamine, penicillin and streptomycin. The yield of neurons is […] per embryo and they are 80-90% viable as assessed by Trypan blue exclusion.
# The neurons are cultured in complete medium at 37° C. in a normal atmosphere for 48 hours prior to the hypoxia experiments. For hypoxia, the normal cell medium is replaced by oxygen-depleted serum-free medium. Cells are incubated in an atmosphere of 95% N2/5% CO2 for various lengths of time. Compounds are dissolved in DMSO at 100 mM then diluted in medium and added to the culture from time=0. The level of apoptosis is measured using a Cell Death Detection ELISA kit (Roche) which detects DNA fragmentation. Plates are read at 405 nm. Controls included cells cultured in aerobic conditions in serum-containing medium (+serum) and cells cultured in aerobic conditions in serum-deprived medium (−serum).
# Compounds with an IC50>0.5 μM are listed as “A”. Compounds with an IC50 between 0.1 μM and 0.5 uM are listed as “B”. Compounds with an IC50<0.1 μM are listed as “C”.
# [5] = system: IL-1β secretion from human whole blood; test: Inhibition of IL-1β secretion from whole blood; assay type: cell-based; conditions: human whole blood diluted 1:2 in PBS, LPS 5 ng/ml, 18 hours, ELISA
# Procedure: Human blood is freshly drawn from healthy donors and diluted 1:2 in PBS. To 500 μl of diluted blood […] of prediluted test compound in RPMI medium and […] LPS (5 ng/ml final concentration on the plate) are added (LPS, Serotype 0111:B4, Sigma L3012). After stimulation for 18 hours supernatants are collected and assayed for IL-1β levels using the appropriate ELISA kit (R&D systems).
# Compounds with an IC50>10 μM are listed as “A”. Compounds with an IC50 between 1 μM and 10 uM are listed as “B”. Compounds with an IC50<1 μM are listed as “C”.
# Chain of recombinant, purified human Caspase-8 (Q14790 217-374 limits assumed): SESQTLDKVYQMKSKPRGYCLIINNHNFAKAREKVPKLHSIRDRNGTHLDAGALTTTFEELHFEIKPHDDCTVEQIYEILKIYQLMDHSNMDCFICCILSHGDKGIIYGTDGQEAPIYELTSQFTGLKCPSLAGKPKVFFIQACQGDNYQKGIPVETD
# Chain of recombinant, purified human Caspase-8 (Q14790 385-479 limits assumed): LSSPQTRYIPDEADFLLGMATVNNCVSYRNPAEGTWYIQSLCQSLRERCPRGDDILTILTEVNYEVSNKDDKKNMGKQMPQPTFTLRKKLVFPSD
SMILES,IC50 [5],kinact Caspase-3 [1],kinact Caspase-8 [2],kinact Caspase-1 [3],IC50 [4]
"CC[C@@H](C(=O)N[C@@H](CC(=O)O)C(=O)COc1c(F)cc(F)cc1F)n1cnc2ccccc2c1=O [Compound 7, (S,S)-4-Oxo-3-[2-(4-oxo-4H-quinazolin-3-yl)-butyrylamino]-5-(2,4,6-trifluoro-phenoxy)-pentanoic acid]",> 10000 nM,B (Compounds with kinact(M^−1s^−1) between 100000 and 500000 are listed as “B”),C (Compounds with kinact(M^−1s^−1)<100000 are listed as “C”),C (Compounds with kinact(M^−1s^−1)<100000 are listed as “C”),> 500 nM
"CC[C@@H](C(=O)NC(CC(=O)O)C(=O)CF)n1cnc2ccc(Sc3cccc(F)c3)cc2c1=O (stereo partly drawn) [Compound 17, 5-Fluoro-3{(2S)-2[6-(3-fluoro-phenylsulfanyl)-4-oxo-4H-quinazolin-3-yl]-butyrylamino}-4-oxo-pentanoic acid]",1000 to 10000 nM,A (Compounds with kinact(M^−1s^−1)>500000 are listed as “A”),A (Compounds with kinact(M^−1s^−1)>500000 are listed as “A”),A (Compounds with kinact(M^−1s^−1)>500000 are listed as “A”),100 to 500 nM
"CC[C@@H](C(=O)N[C@@H](CC(=O)O)C(=O)COc1c(F)c(F)cc(F)c1F)n1ccc2ccccc2c1=O [Compound 9, (S,S)-3-[2-(1-oxo-1H-isoquinolin-2-yl)-butyrylamino]-4-oxo-5-(2,3,5,6-tetrafluoro-phenoxy)-pentanoic acid]",> 10000 nM,B (Compounds with kinact(M^−1s^−1) between 100000 and 500000 are listed as “B”),C (Compounds with kinact(M^−1s^−1)<100000 are listed as “C”),B (Compounds with kinact(M^−1s^−1) between 100000 and 500000 are listed as “B”),100 to 500 nM
"CC[C@@H](C(=O)N[C@@H](CC(=O)O)C(=O)COc1c(F)c(F)cc(F)c1F)n1ccc2ccc(C(F)(F)F)cc2c1=O [Compound 19, (S,S)-3-[2-(7-trifluoromethyl-1-oxo-1H-isoquinolin-2-yl)-butyrylamino]-4-oxo-5-(2,3,5,6-tetrafluoro-phenoxy)-pentanoic acid]",1000 to 10000 nM,A (Compounds with kinact(M^−1s^−1)>500000 are listed as “A”),C (Compounds with kinact(M^−1s^−1)<100000 are listed as “C”),A (Compounds with kinact(M^−1s^−1)>500000 are listed as “A”),< 100 nM
"CC[C@@H](C(=O)NC(CC(=O)O)C(=O)CF)n1cnc2ccc(Oc3cccc(F)c3)cc2c1=O (stereo partly drawn) [Compound 14, 5-Fluoro-3-{(2S)-2[6-(3-fluorophenoxy)-4-oxo-4H-quinazolin-3-yl]-butyrylamino}-4-oxo-pentanoic acid]",< 1000 nM,A (Compounds with kinact(M^−1s^−1)>500000 are listed as “A”),B (Compounds with kinact(M^−1s^−1) between 100000 and 500000 are listed as “B”),A (Compounds with kinact(M^−1s^−1)>500000 are listed as “A”),> 500 nM
"CC[C@@H](C(=O)N[C@@H](CC(=O)O)C(=O)COc1c(F)c(F)cc(F)c1F)n1ccc2cc(Cl)c(Cl)cc2c1=O [Compound 11, (S,S)-3-[2-(6,7-dichloro-1-oxo-1H-isoquinolin-2-yl)-butyrylamino]-4-oxo-5-(2,3,5,6-tetrafluoro-phenoxy)-pentanoic acid]",> 10000 nM,A (Compounds with kinact(M^−1s^−1)>500000 are listed as “A”),C (Compounds with kinact(M^−1s^−1)<100000 are listed as “C”),A (Compounds with kinact(M^−1s^−1)>500000 are listed as “A”),100 to 500 nM
"CC[C@@H](C(=O)NC(CC(=O)O)C(=O)CF)n1cnc2ccc(Oc3cccc(Cl)c3)cc2c1=O (stereo partly drawn) [Compound 13, 3-[(2S)-2-[6-(3-Chlorophenoxy)-4-oxo-4H-quinazolin-3-yl)-butyrylamino]-5-fluoro-4-oxo-pentanoic acid]",1000 to 10000 nM,B (Compounds with kinact(M^−1s^−1) between 100000 and 500000 are listed as “B”),A (Compounds with kinact(M^−1s^−1)>500000 are listed as “A”),B (Compounds with kinact(M^−1s^−1) between 100000 and 500000 are listed as “B”),100 to 500 nM

# Further lines, with some results ahead:
IC50 [5],SMILES,kinact Caspase-3 [1],kinact Caspase-8 [2],kinact Caspase-1 [3],IC50 [4]
1000 to 10000 nM,"CC[C@@H](C(=O)NC(CC(=O)O)C(=O)CF)n1ccc2cc(C(F)(F)F)ccc2c1=O (stereo in doubt) [Compound 4, (S)-3-[2-(6-trifluoromethyl-1-oxo-1H-isoquinolin-2-yl)-butyrylamino]-5-fluoro-4-oxo-pentanoic acid]",B (Compounds with kinact(M^−1s^−1) between 100000 and 500000 are listed as “B”),C (Compounds with kinact(M^−1s^−1)<100000 are listed as “C”),B (Compounds with kinact(M^−1s^−1) between 100000 and 500000 are listed as “B”),> 500 nM
< 1000 nM,"CC[C@@H](C(=O)NC(CC(=O)O)C(=O)CF)n1ccc2ccc(C(F)(F)F)cc2c1=O (mixture of isomers) [Compound 2, (S)-3-[2-(7-trifluoromethyl-1-oxo-1H-isoquinolin-2-yl)-butyrylamino]-5-fluoro-4-oxo-pentanoic acid]",A (Compounds with kinact(M^−1s^−1)>500000 are listed as “A”),A (Compounds with kinact(M^−1s^−1)>500000 are listed as “A”),A (Compounds with kinact(M^−1s^−1)>500000 are listed as “A”),> 500 nM
1000 to 10000 nM,"CC[C@@H](C(=O)NC(CC(=O)O)C(=O)CF)n1ccc2ccc(-c3ccccc3)cc2c1=O (mixture of isomers) [Compound 21, (S)-3-[2-(7-phenyl-1-oxo-1H-isoquinolin-2-yl)-butyrylamino]-5-fluoro-4-oxo-pentanoic acid]",A (Compounds with kinact(M^−1s^−1)>500000 are listed as “A”),A (Compounds with kinact(M^−1s^−1)>500000 are listed as “A”),A (Compounds with kinact(M^−1s^−1)>500000 are listed as “A”),100 to 500 nM
